The NIST ThermoML archive (doi:10.1016/j.jct.2012.12.001)

Experiment: heat capacity at constant pressure per volume; xn = mol fraction of the nth substance listed
Details: 101 kPa, Liquid, DSC, x2 = 0.713

CCCCCCCCCCCCCCCCCC [octadecane] + N#Cc1ccccc1
Details	heat capacity [J/K/m3]
311.31 K	1755300
311.34 K	1755200
311.37 K	1751900
311.39 K	1755200
311.42 K	1754200
311.45 K	1754700
311.48 K	1751100
311.51 K	1751000
311.54 K	1753000
311.56 K	1754300
311.59 K	1755100
311.62 K	1752800
311.65 K	1748600
311.68 K	1753400
311.7 K	1751800
311.73 K	1751000
311.76 K	1752000
311.79 K	1748500
311.82 K	1747200
311.85 K	1749600
311.87 K	1749800
311.9 K	1751600
311.93 K	1750300
311.96 K	1749700
311.99 K	1747400
312.01 K	1746900
312.04 K	1752800
312.07 K	1750900
312.1 K	1745700
312.13 K	1749200
312.15 K	1747500
312.18 K	1746000
312.21 K	1746700
312.24 K	1746500
312.27 K	1747800
312.3 K	1746300
312.32 K	1744700
312.35 K	1746400
312.38 K	1744700
312.41 K	1744900
312.44 K	1743500
312.46 K	1743700
312.49 K	1747600
312.52 K	1745100
312.55 K	1746800
312.58 K	1745400
312.6 K	1744400
312.63 K	1744300
312.66 K	1743700
312.69 K	1745000
312.72 K	1743800
312.75 K	1744000
312.77 K	1743700
312.8 K	1741400
312.83 K	1742500
312.86 K	1743700
312.88 K	1745000
312.91 K	1746300
312.94 K	1744500
312.97 K	1744100
313 K	1743500
313.03 K	1742300
313.05 K	1742800
313.08 K	1741900
313.11 K	1742400
313.14 K	1742800
313.17 K	1739000
313.19 K	1743700
313.22 K	1740000
313.25 K	1739100
313.28 K	1738800
313.31 K	1739500
313.33 K	1740400
313.36 K	1741400
313.39 K	1740700
313.42 K	1739700
313.45 K	1740900
313.48 K	1742600
313.5 K	1740800
313.53 K	1739000
313.56 K	1737700
313.59 K	1739600
313.62 K	1740700
313.64 K	1741100
313.67 K	1740500
313.7 K	1740400
313.73 K	1741200
313.76 K	1739900
313.79 K	1739100
313.81 K	1739300
313.84 K	1739200
313.87 K	1738900
313.9 K	1738100
313.93 K	1738700
313.95 K	1735100
313.98 K	1738800
314.01 K	1737700
314.04 K	1736700
314.07 K	1735400
314.09 K	1737000
314.12 K	1736800
314.15 K	1737300
314.18 K	1733500
314.21 K	1737800
314.24 K	1735200
314.26 K	1736900
314.29 K	1735200
314.32 K	1736400
314.35 K	1737400
314.38 K	1736600
314.4 K	1738700
314.43 K	1736600
314.46 K	1737000
314.49 K	1735500
314.52 K	1735300
314.54 K	1735400
314.57 K	1735300
314.6 K	1735500
314.63 K	1734500
314.66 K	1737100
314.68 K	1735100
314.71 K	1733900
314.74 K	1734500
314.77 K	1733900
314.8 K	1737400
314.82 K	1736200
314.85 K	1735600
314.88 K	1735100
314.91 K	1734300
314.94 K	1734100
314.96 K	1733300
314.99 K	1735100
315.02 K	1735000
315.05 K	1735200
315.08 K	1732600
315.2 K	1734500
315.38 K	1734200
315.57 K	1733800
315.76 K	1733400
315.95 K	1733200
316.14 K	1733100
316.33 K	1732700
316.52 K	1732000
316.71 K	1731600
316.9 K	1731300
317.09 K	1731000
317.28 K	1730800
317.47 K	1730300
317.66 K	1730100
317.85 K	1730000
318.03 K	1729900
318.22 K	1729800
318.41 K	1729400
318.6 K	1729300
318.79 K	1729200
318.98 K	1729000
319.17 K	1728800
319.36 K	1728600
319.55 K	1728600
319.74 K	1728300
319.93 K	1728200
320.12 K	1728000
320.31 K	1728000
320.5 K	1728000
320.68 K	1728000
320.87 K	1727900
321.06 K	1727600
321.25 K	1727500
321.44 K	1727400
321.63 K	1727200
321.82 K	1727200
322.01 K	1727300
322.2 K	1727200
322.39 K	1726900
322.58 K	1726600
322.76 K	1726900
322.95 K	1726900
323.14 K	1726800
323.33 K	1726700
323.52 K	1726500
323.71 K	1726800
323.9 K	1726900
324.09 K	1726700
324.28 K	1726700
324.47 K	1726600
324.66 K	1726600
324.85 K	1726700
325.04 K	1726500
325.23 K	1726500
325.41 K	1726500
325.6 K	1726500
325.79 K	1726500
325.98 K	1726300
326.17 K	1726400
326.36 K	1726600
326.55 K	1726500
326.74 K	1726700
326.93 K	1726700
327.12 K	1726400
327.31 K	1726600
327.5 K	1726500
327.69 K	1726700
327.87 K	1726500
328.06 K	1726500
328.25 K	1726700
328.44 K	1726900
328.63 K	1726600
328.82 K	1726700
329.01 K	1726800
329.2 K	1726900
329.39 K	1726800
329.58 K	1726700
329.77 K	1726700
329.95 K	1726800
330.14 K	1726900
330.33 K	1726900
330.52 K	1726800
330.71 K	1727000
330.9 K	1727000
331.09 K	1727200
331.28 K	1727300
331.47 K	1727100
331.66 K	1727200
331.85 K	1727200
332.04 K	1727200
332.23 K	1727200
332.42 K	1727100
332.61 K	1727100
332.79 K	1727400
332.98 K	1727300
333.17 K	1727400
333.36 K	1727300
333.55 K	1727600
333.74 K	1728000
333.93 K	1727700
334.12 K	1727800
334.31 K	1727700
334.5 K	1727900
334.69 K	1728100
334.88 K	1728200
335.06 K	1728100
335.25 K	1728100
335.44 K	1728300
335.63 K	1728300
335.82 K	1728600
336.01 K	1729000
336.2 K	1729000
336.39 K	1728800
336.58 K	1729000
336.77 K	1729100
336.96 K	1729000
337.15 K	1729000
337.34 K	1729200
337.52 K	1729100
337.71 K	1729200
337.9 K	1729200
338.09 K	1729300
338.28 K	1729700
338.47 K	1729900
338.66 K	1729900
338.85 K	1729600
339.04 K	1730200
339.23 K	1730200
339.42 K	1730600
339.61 K	1730700
339.8 K	1730900
339.99 K	1730600
340.17 K	1730800
340.36 K	1730700
340.55 K	1730900
340.74 K	1731100
340.93 K	1730900
341.12 K	1730900
341.31 K	1731200
341.5 K	1731200
